Where two headings read alike, the source gives them in different places.
What was measured:
[1] = test system: HCV replicon in HUH-7 cells; experiment: HCV replicon FRET assay; type: cell-based, HCV strain 1b; conditions: Hepatitis C virus
[2] = biological target: T1, HCV NS3/4A protease complex, BMS strain (UniProt P27958, C1454S/C1711G, species not given); experiment: FRET peptide assay to monitor HCV NS3/4A proteolytic activity (BMS strain); type: biochemical, HCV genotype 1a; conditions: read-out: IC50 Range, HCV NS3/4A enzyme assay
T1 construct: other: HCV NS3/4A enzyme assay; class symbols; numeric values; fused on or other part: three-lysine solubilising tail at the C-terminus of NS4A; purified on Ni-NTA from the pET21b vector (His tag implied)
In short: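 Recombinant HCV NS3/4A protease complex (BMS strain, genotype 1a), 2-3 nM final (300 pM with 50 μg/ml BSA for very potent compounds), incubated with RET S1 EDANS/DABCYL depsipeptide substrate at 2 μM final. Buffer: 50 mM HEPES pH 7.5, 0.15 M NaCl, 0.1% Triton, 15% glycerol, 10 mM βME. Cleavage followed in real time by fluorescence.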

SMILES | EC50 ([1]; Huh-7, read-out: EC50 Range) | IC50 ([2]; class symbols) | EC50 ([1]; Huh-7, HCV replicon cell assay, numeric values, read-out: EC50 Range) | IC50 ([2]; numeric values)
C=C[C@@H]1C[C@]1(NC(=O)[C@@H]1C[C@@H](Oc2ncc(OC)c3ccc(Cl)cc23)CN1C(=O)[C@@H](Nc1nc(-c2ccccc2F)cs1)C(C)(C)C)C(=O)NS(=O)(=O)C1CC1 [Example 39] | 1 to 50 nM | 1 to 20 nM | – | –
C=C[C@@H]1C[C@]1(NC(=O)[C@@H]1C[C@@H](Oc2ncc(OC)c3ccc(Cl)cc23)CN1C(=O)[C@@H](Nc1nc(-c2ccccc2O)cs1)C(C)(C)C)C(=O)NS(=O)(=O)C1CC1 [Example 50] | – | – | 18.9 nM | 39 nM
C=C[C@@H]1C[C@]1(NC(=O)[C@@H]1C[C@@H](Oc2ncc(OC)c3ccc(Cl)cc23)CN1C(=O)[C@@H](Nc1nc(-c2ccc(OC)cc2)c(CC)s1)C(C)(C)C)C(=O)NS(=O)(=O)C1CC1 [Example 12] | 1 to 50 nM | 1 to 20 nM | – | –
C=C[C@@H]1C[C@]1(NC(=O)[C@@H]1C[C@@H](Oc2ncc(OC)c3ccc(Cl)cc23)CN1C(=O)[C@@H](Nc1nc(-c2c(Cl)cccc2Cl)cs1)C(C)(C)C)C(=O)NS(=O)(=O)C1CC1 [Example 57] | 1 to 50 nM | 1 to 20 nM | – | –
C=C[C@@H]1C[C@]1(NC(=O)[C@@H]1C[C@@H](Oc2cc(-c3ccccc3)nc3cc(OC)ccc23)CN1C(=O)[C@@H](Nc1nc(-c2cccc(OC)c2)cs1)C(C)(C)C)C(=O)NS(=O)(=O)C1CC1 [Example 3] | 1 to 50 nM | 1 to 20 nM | – | –
C=C[C@@H]1C[C@]1(NC(=O)[C@@H]1C[C@@H](Oc2ncc(OC)c3ccc(Cl)cc23)CN1C(=O)[C@@H](Nc1nc(-c2ccc(Cl)cc2Cl)cs1)C(C)(C)C)C(=O)NS(=O)(=O)C1CC1 [Example 37] | 1 to 50 nM | 20 to 200 nM | – | –
C=C[C@@H]1C[C@]1(NC(=O)[C@@H]1C[C@@H](Oc2ncc(OC)c3ccc(Cl)cc23)CN1C(=O)[C@@H](Nc1nc(-c2ccc(N3CCOCC3)cc2)cs1)C(C)(C)C)C(=O)NS(=O)(=O)C1CC1 [Example 41] | 1 to 50 nM | 1 to 20 nM | – | –
C=C[C@@H]1C[C@]1(NC(=O)[C@@H]1C[C@@H](Oc2ncc(OC)c3ccc(Cl)cc23)CN1C(=O)[C@@H](Nc1nc(-c2ccccc2)c(-c2ccccc2)s1)C(C)(C)C)C(=O)NS(=O)(=O)C1CC1 [Example 45] | 1 to 50 nM | 1 to 20 nM | – | –
C=C[C@@H]1C[C@]1(NC(=O)[C@@H]1C[C@@H](Oc2ncc(OC)c3ccc(Cl)cc23)CN1C(=O)[C@@H](Nc1nc(-c2ccc(-c3ccccc3)cc2)cs1)C(C)(C)C)C(=O)NS(=O)(=O)C1CC1 [Example 24] | 1 to 50 nM | 20 to 200 nM | – | –
